The source made the active and inactive calls. The calls are words filed in the database; no cut-off is given here.
Assays:
[1] = target: T1, Transient receptor potential cation channel subfamily A member 1 (Homo sapiens, UniProt O75762); experiment: Inhibition of human TRPA1 expressed in HEK293 cells assessed as decrease in AITC-induced calcium influx at 30 uM preincubated for 6 mins followed by AITC addition measured for 1 min by Fluo-4 dye-based assay relative to resveratrol; format: cell-based
T1 sequence (O75762 whole entry): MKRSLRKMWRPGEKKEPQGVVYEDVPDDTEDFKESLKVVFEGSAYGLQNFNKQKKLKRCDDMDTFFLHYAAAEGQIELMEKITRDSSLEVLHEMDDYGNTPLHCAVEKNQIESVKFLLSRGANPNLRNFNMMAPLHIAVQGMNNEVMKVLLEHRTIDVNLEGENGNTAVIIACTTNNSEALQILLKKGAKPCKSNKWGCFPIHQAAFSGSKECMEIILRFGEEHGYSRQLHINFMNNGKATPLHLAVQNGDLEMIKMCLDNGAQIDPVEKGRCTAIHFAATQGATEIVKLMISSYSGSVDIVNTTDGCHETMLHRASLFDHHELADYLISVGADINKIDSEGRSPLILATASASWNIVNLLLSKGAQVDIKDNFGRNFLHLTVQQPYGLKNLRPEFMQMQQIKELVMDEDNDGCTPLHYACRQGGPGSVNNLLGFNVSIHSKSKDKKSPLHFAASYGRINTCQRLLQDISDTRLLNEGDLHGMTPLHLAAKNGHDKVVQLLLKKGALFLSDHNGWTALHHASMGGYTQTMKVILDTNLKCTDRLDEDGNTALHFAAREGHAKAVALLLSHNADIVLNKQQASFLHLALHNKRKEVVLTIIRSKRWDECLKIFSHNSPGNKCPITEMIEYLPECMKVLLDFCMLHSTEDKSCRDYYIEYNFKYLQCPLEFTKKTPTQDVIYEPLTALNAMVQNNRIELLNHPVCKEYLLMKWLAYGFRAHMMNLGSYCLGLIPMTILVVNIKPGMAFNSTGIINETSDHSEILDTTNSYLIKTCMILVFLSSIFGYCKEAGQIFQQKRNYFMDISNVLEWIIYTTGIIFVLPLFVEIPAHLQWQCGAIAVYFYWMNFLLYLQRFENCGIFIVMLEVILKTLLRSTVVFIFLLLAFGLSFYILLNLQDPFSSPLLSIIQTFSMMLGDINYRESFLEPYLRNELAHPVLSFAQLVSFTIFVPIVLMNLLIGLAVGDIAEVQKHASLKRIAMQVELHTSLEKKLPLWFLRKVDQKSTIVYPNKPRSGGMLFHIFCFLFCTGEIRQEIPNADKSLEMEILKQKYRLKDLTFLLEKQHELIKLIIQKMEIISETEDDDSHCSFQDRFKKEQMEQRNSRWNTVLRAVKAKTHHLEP

[2] = target: T1, Transient receptor potential cation channel subfamily A member 1; experiment: Agonist activity at human TRPA1 expressed in HEK293 cells assessed as induction of calcium influx at 30 uM after 6 mins by Fluo-4 dye-based assay relative to AITC; format: cell-based; conditions: hek293, 0.1 h
[3] = target: T1, Transient receptor potential cation channel subfamily A member 1; experiment: Inhibition of human TRPA1 expressed in HEK293 cells assessed as decrease in AITC-induced calcium influx preincubated for 6 mins followed by AITC addition measured for 1 min by Fluo-4 dye-based assay; format: cell-based
[4] = target: T1, Transient receptor potential cation channel subfamily A member 1; experiment: Agonist activity at human TRPA1 expressed in HEK293 cells assessed as induction of calcium influx at 30 uM after 6 mins by Fluo-4 dye-based assay; format: cell-based
[5] = target: T1, Transient receptor potential cation channel subfamily A member 1; experiment: Inhibition of human TRPA1 expressed in HEK293 cells assessed as decrease in AITC-induced calcium influx at 10 uM preincubated for 6 mins followed by AITC addition measured for 1 min by Fluo-4 dye-based assay relative to control; format: cell-based
[6] = target: T2, Transient receptor potential cation channel subfamily A member 1 (Rattus norvegicus, UniProt Q6RI86); experiment: Activation of TRPA1 in Sprague-Dawley rat DRG neuron assessed as induction of current response at -60 mV holding potential at 300 uM incubated for 30 secs by whole-cell patch-clamp assay; conditions: 0.5 min
T2 sequence (Q6RI86 whole entry): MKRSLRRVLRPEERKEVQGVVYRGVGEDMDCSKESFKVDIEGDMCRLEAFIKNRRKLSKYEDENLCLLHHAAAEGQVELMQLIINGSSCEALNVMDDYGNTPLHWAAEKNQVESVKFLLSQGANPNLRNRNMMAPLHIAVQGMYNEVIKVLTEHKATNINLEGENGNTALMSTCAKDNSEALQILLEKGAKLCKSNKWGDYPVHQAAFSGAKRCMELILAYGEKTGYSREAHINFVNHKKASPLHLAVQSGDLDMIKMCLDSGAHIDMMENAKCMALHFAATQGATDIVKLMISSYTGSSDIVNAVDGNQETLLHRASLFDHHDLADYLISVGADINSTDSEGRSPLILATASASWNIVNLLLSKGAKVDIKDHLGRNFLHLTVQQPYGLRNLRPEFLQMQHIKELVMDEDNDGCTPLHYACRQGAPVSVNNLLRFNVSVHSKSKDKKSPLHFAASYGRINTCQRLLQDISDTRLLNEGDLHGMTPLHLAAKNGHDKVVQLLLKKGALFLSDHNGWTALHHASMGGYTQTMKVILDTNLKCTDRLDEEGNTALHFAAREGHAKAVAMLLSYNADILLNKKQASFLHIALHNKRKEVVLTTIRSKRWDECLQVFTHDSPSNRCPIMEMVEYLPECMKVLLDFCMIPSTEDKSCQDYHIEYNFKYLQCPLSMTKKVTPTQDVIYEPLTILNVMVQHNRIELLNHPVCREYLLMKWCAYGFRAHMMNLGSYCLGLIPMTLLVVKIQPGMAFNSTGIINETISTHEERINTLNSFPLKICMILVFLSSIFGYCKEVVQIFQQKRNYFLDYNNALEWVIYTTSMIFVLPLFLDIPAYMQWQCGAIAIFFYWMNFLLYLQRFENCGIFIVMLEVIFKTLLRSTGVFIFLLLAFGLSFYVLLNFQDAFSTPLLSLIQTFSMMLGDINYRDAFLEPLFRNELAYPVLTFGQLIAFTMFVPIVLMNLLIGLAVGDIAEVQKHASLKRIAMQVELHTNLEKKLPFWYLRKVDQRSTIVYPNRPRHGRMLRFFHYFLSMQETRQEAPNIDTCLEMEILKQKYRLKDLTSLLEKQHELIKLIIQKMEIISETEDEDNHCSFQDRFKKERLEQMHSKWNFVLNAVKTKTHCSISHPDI

[7] = target: T1, Transient receptor potential cation channel subfamily A member 1; experiment: Inhibition of human TRPA1 expressed in HEK293 cells assessed as decrease in AITC-induced calcium influx at 30 uM preincubated for 6 mins followed by AITC addition measured for 1 min by Fluo-4 dye-based assay relative to control; format: cell-based
[8] = target: T1, Transient receptor potential cation channel subfamily A member 1; experiment: Inhibition of human TRPA1 expressed in HEK293 cells assessed as decrease in AITC-induced calcium influx at 3 uM preincubated for 6 mins followed by AITC addition measured for 1 min by Fluo-4 dye-based assay relative to control; format: cell-based
[9] = target: T2, Transient receptor potential cation channel subfamily A member 1; experiment: Activation of TRPA1 in Sprague-Dawley rat DRG neuron assessed as induction of current response at -60 mV holding potential at 1 uM incubated for 30 secs by whole-cell patch-clamp assay; conditions: 0.5 min
[10] = target: T1, Transient receptor potential cation channel subfamily A member 1; experiment: Inhibition of TRPA1 (unknown origin)
[11] = target: T1, Transient receptor potential cation channel subfamily A member 1; experiment: Inhibition of human TRPA1 expressed in HEK293 cells assessed as decrease in AITC-induced current response by whole cell patch clamp method; format: cell-based
[12] = target: T1, Transient receptor potential cation channel subfamily A member 1; experiment: Agonist activity at human TRPA1 expressed in HEK293 cells assessed as induction of inward current response by whole-cell patch-clamp assay; format: cell-based
[13] = target: T1, Transient receptor potential cation channel subfamily A member 1; experiment: Agonist activity at human TRPA1 expressed in HEK293 cells assessed as induction of inward current response at 10 uM in presence of TRPA1 antagonist HC-030031 by whole-cell patch-clamp assay; format: cell-based; conditions: hek293, 10 µM
HEK293 = experiment: Induction of current response in HEK293 cells at 10 uM by whole-cell patch-clamp assay; format: cell-based; conditions: human, hek293, 10 µM
Rattus norvegicus [14] = experiment: Antinociceptive activity in Sprague-Dawley rat assessed as decrease in paw-licking time at 2 mM administered intraplantarly for 5 mins followed by AITC addition measured for 5 mins; format: functional
[15] = target: T1, Transient receptor potential cation channel subfamily A member 1; experiment: Desensitization of human TRPA1 expressed in HEK293 cells assessed as decrease in AITC-induced inward current response at -60 mV holding potential preincubated for 1 min followed by AITC induction for 1 min by whole-cell patch-clamp assay; format: cell-based
Rattus norvegicus [16] = experiment: Induction of nocifensive behavior in Sprague-Dawley rat at 2 mM administered intraplantarly for 5 mins; conditions: in vivo, other, 2000 µM
[17] = target: T2, Transient receptor potential cation channel subfamily A member 1; experiment: Activation of TRPA1 in Sprague-Dawley rat DRG neuron assessed as induction of current response at -60 mV holding potential at 30 uM incubated for 30 secs by whole-cell patch-clamp assay; conditions: 0.5 min
[18] = target: T1, Transient receptor potential cation channel subfamily A member 1; experiment: Activation of human TRPA1 expressed in HEK293 cells assessed as induction of inward current response at -60 mV holding potential at 5 uM incubated for 1 min by whole-cell patch-clamp assay; format: cell-based; conditions: hek293, 1 min

SMILES	fold change (FC) [1]	fold change (FC) [2]	also measured
Oc1cc(O)cc(/C=C/c2cc(O)c(O)c(O)c2)c1	0.4	0.3	–
Oc1ccc(CCc2cc(O)cc(O)c2)cc1 [DIHYDRORESVERATROL]	1.2	0.4	IC50 [3]: > 30 µM; EC50 [4]: > 30 µM; inhibition [5]: 1.2%
C=CCN=C=S [ALLYL ISOTHIOCYANATE]	–	–	Activity [6]: Active
Clc1ccc(/C=C/c2cc(Cl)cc(Cl)c2)cc1	0.8	0.3	inhibition [7]: 20.6%; inhibition [8]: 3%; IC50 [3]: > 30 µM; EC50 [4]: > 30 µM; inhibition [5]: 7.2%
COc1ccc(NC(=O)c2cc(O)cc(O)c2)cc1	-0.4	0.3	inhibition [7]: 11.8%; inhibition [8]: -5.9%; IC50 [3]: > 30 µM; EC50 [4]: > 30 µM; inhibition [5]: -8.2%
Oc1cc(O)cc(/C=C/c2ccc3c(c2)OCO3)c1	0.6	0.3	–
Oc1cc(O)cc(/C=C/c2cccc3ccccc23)c1	1.1	0.3	–
Oc1cccc(/C=C/c2cc(O)cc(O)c2)c1	0.8	0.4	inhibition [7]: 1.4%; IC50 [3]: > 30 µM; EC50 [4]: > 30 µM
COc1ccc(/C=C/c2cc(O)cc(O)c2)cc1OC [RHAPONTIGENIN]	0.4	–	–
Oc1ccc(/C=C/c2ccc(O)c(O)c2)cc1	-0.3	0.4	–
Oc1cc(O)cc(/C=C/c2ccccc2O)c1	0.6	0.4	–
Oc1cc(O)cc(/C=C/c2ccc(Cl)cc2)c1	0.5	0.3	inhibition [7]: 18.6%; inhibition [8]: 6.1%; IC50 [3]: > 30 µM; EC50 [4]: > 30 µM; inhibition [5]: 5.6%
Oc1ccc(-c2cc(O)cc(O)c2)cc1	0.8	0.5	–
CCOc1ccc(/C=C/c2cc(O)cc(O)c2)cc1	-0.2	0.3	–
COCOc1ccc(/C=C/c2cc(OCOC)cc(OCOC)c2)cc1	0.4	0.5	–
Oc1cc(O)cc(/C=C/c2ccc(O)c(O)c2)c1 [PICEATANNOL]	0	0.3	–
Oc1cc(O)cc(/C=C/C2CCCCC2)c1	0.5	0.3	–
Oc1cc(O)cc(/C=C/c2ccc(OCC3CCCCC3)cc2)c1	-0.1	0.4	–
O=C(Nc1ccc(O)cc1)c1cc(O)cc(O)c1	-0.6	0.3	–
Oc1cc(O)cc(/C=C/c2ccccc2)c1 [PINOSYLVIN]	-0.1	0.4	–

SMILES	fold change (FC) [1]	fold change (FC) [2]	also measured
COc1cc(CNC(=O)CCCC/C=C/C(C)C)ccc1O [CAPSAICIN]	–	–	Activity [9]: Active
COc1ccc(/C=C/c2cc(O)cc(O)c2)cc1 [RESVERATROL 4'-METHYL ETHER]	0.3	0.3	–
Oc1ccccc1/C=C/c1ccccc1	1.1	0.6	inhibition [7]: -9.5%; inhibition [8]: -1.9%; IC50 [3]: > 30 µM; EC50 [4]: > 10 µM; IC50 [10]: 1.7 to 2.2 µM; inhibition [5]: -5%
Oc1ccc(/C=C/c2cc(O)cc(O)c2)cc1 [RESVERATROL]	–	0.4	inhibition [7]: 37.5%; IC50 [11]: 0.75 µM; inhibition [8]: -3.8%; IC50 [3]: > 30 µM; EC50 [4]: > 30 µM; inhibition [5]: 2.5%
COc1ccccc1/C=C/c1ccccc1	0.3	0.4	IC50 [10]: 1.7 to 2.2 µM
CC(C)(C)/C=C/c1cc(O)cc(O)c1	0.8	0.3	–
Oc1cc(O)cc(/C=C/c2ccc(OCc3ccccc3)cc2)c1	0.7	0.3	–
CCCCCCOc1ccc(/C=C/c2cc(O)cc(O)c2)cc1	0.1	0.5	–
COc1cc(O)cc(/C=C/c2ccccc2)c1 [PINOSYLVIN METHYL ETHER]	0.6	0.7	–
Oc1ccc(/C=C/c2ccccc2)cc1 [(E)-4-STYRYLPHENOL]	0.1	0.4	–
Oc1ccc(/C=C/c2cc(Br)c(O)c(Br)c2)cc1	1.4	0.5	inhibition [7]: 66.7%; Activity [12]: Not Active; Activity [13]: Dose-dependent effect; Activity (HEK293): Non-Toxic; inhibition [8]: 14%; Activity (Rattus norvegicus [14]): Active; Activity [15]: Dose-dependent effect; Activity (Rattus norvegicus [16]): Non-Toxic; Activity [17]: Active; IC50 [3]: 16.1 µM; EC50 [4]: > 10 µM; inhibition [5]: 37.3%; Activity [18]: Active
Clc1ccc(/C=C/c2ccccc2)cc1	-0.2	0.3	–
CCOc1ccc(/C=C/c2cc(OCC)cc(OCC)c2)cc1	0.4	0.4	–
COc1cc(/C=C/c2ccccc2)cc(OC)c1 [3,5-O-DIMETHYLPINOSYLVIN]	0.5	0.6	–
CCCOc1ccc(/C=C/c2cc(OCCC)cc(OCCC)c2)cc1	-0.1	0.3	–
CCCOc1ccc(/C=C/c2cc(O)cc(O)c2)cc1	0.1	0.3	–
COc1ccc(/C=C/c2cc(OC)cc(OC)c2)cc1 [TRISMETHOXYRESVERATROL]	0.3	0.3	–
Clc1cc(Cl)cc(/C=C/c2ccccc2)c1	0.7	0.3	inhibition [7]: 8.4%; IC50 [3]: > 30 µM; EC50 [4]: > 30 µM; inhibition [5]: 6.2%
CC(=O)Oc1ccc(/C=C/c2cc(OC(C)=O)cc(OC(C)=O)c2)cc1 [TRIACETYLRESVERATROL]	0.5	0.5	–
Oc1cc(O)cc(/C=C/c2cc(Br)c(O)c(Br)c2)c1	0.8	0.3	–
